According to PubChem BioAssay AID1117319 (Southern Research Institute, 2015):
Results filed as inconclusive are left out.

The molecules below were run against Virion infectivity factor (Human immunodeficiency virus type 1 group M subtype B (isolate BH10)) + Virion infectivity factor (Human immunodeficiency virus type 1 group M subtype B (isolate BRU/LAI)) + Virion infectivity factor (Human immunodeficiency virus type 1 group M subtype B (isolate PCV12)) + Virion infectivity factor (Human immunodeficiency virus type 1 group M subtype B (isolate HXB2)) + DNA dC->dU-editing enzyme APOBEC-3G (Homo sapiens) (UniProt P69720+P69721+P69722+P69723+Q9HC16) (assay: inhibitors of Vif binding to APOBEC3G peptide, primary screen, biochemical, TR-FRET, GST-Vif 1-94, biotin-A3G peptide, dose response retest (AID 1117319);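 further: Vif residues 1-94 fused to GST binding biotinylated APOBEC3G peptide 110-148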).

Row | Compound | IC50 [µM]
1 | COc1cc(/C=C2\CC/C(=C\c3cc(OC)c(O)c(OC)c3)C2=O)cc(OC)c1O | 1.56
2 | Nc1cccc2c(O)cc(S(=O)(=O)O)cc12 | 2
3 | CCSC1=C(C#N)C(c2cccs2)C(C(=O)OC)=C(C)N1 (configuration not stated) | 75.5
4 | O=c1[nH]c2ccccc2n2c(-c3ccccc3)nnc12 | 15.5
5 | O=C(NN(C(=O)c1ccccc1)c1ccccc1)c1ccccc1 | 70.7
6 | O=C1NC(=O)C(=Cc2ccco2)C(=O)N1 | 19.9
7 | CO[C@H]1C=CO[C@@]2(C)Oc3c(C)c(O)c4c(O)c(c(C=NN5CCN(C)CC5)c(O)c4c3C2=O)NC(=O)C(C)=CC=C[C@H](C)[C@H](O)[C@@H](C)[C@@H](O)[C@@H](C)[C@H](OC(C)=O)[C@@H]1C | 7.75
8 | O=C1CC=C2C3CC4N(CCC45c4cc(O)c(O)cc4N1C25)CC3=CCBr (configuration not stated) | 0.7
9 | Clc1ccc(/C=N/c2c(-c3ccco3)nc3ccccn23)cc1 | 14.1
10 | CCCC(=O)Nc1ccc(Br)cn1 | 65.1
11 | O=C(Nc1cc(Cl)ccn1)C1CCN(S(=O)(=O)c2cccs2)CC1 | 56.8
12 | CCOC(=O)C1(C)NC(c2ccco2)C2C(=O)N(CC)C(=O)C21 (configuration not stated) | 99.2
13 | FC(F)(F)C1=Nc2cccc3cccc(c23)N1 | 5.95
14 | COc1cccc(C(C#N)N2CCCCC2)c1O (configuration not stated) | 79.2
15 | CCN1CCN(c2cc(N3CCN(C(=O)c4ccco4)CC3)c3c4c(onc24)-c2ccccc2C3=O)CC1 | 3.06
16 | COc1cc(CC(=O)OCC(=O)Nc2cccc([N+](=O)[O-])c2)cc(OC)c1OC | 11.8
17 | COc1ccccc1/C=C(/CC(=O)NCc1ccccc1)c1nc2ccccc2s1 | 45.3
18 | O=C(O)CC(C(=O)O)N1C(=O)/C(=C/c2ccc(-c3nc4ccccc4s3)o2)SC1=S (configuration not stated) | 6.36
19 | Cc1cccc(-n2c(N)cc(=O)nc2SCC(=O)NC2CCCCC2)c1 | 93.7
20 | COc1ccc(S(=O)(=O)c2c(N)n(Cc3ccco3)c3nc4ccccc4nc23)cc1 | 3.47
21 | O=C(c1cc2n(n1)C(C(F)(F)F)CC(c1ccco1)N2)N1CCc2ccccc2C1 (configuration not stated) | 33.2
22 | CCOC(=O)C1=C(c2ccccc2)N=c2s/c(=C\c3ccco3)c(=O)n2C1c1cccs1 (configuration not stated) | 3.76

Row | Compound | IC50 [µM]
23 | C[c-]1[c-](C)[c-](C)[c-](C)[c-]1C.[Fe].c1cc2nccc(N3CCCC3)[c-]2c1 (configuration not stated) | 2.03
24 | CCn1c(SCC(=O)Nc2cc(C)on2)nnc1-c1cccnc1 | 9.51
25 | COc1cc(N(C)C)ccc1C=c1c2ccccc2n2c1cc(-c1ccccc1)[n+]2C | 5.33
26 | N=C1C=CC(=C(c2ccc(N)cc2)c2ccc(N)cc2)C=C1 | 3.43
27 | O=C(NCCN1CCN(c2ccccc2)CC1)C1CCN(S(=O)(=O)c2cccc3nonc23)CC1 | 43
28 | CC(=O)Nc1ccc(S(=O)(=O)NCCSCc2ccco2)cc1 | 15.3
29 | CCC1=NN2C(=N)/C(=C\c3ccc(SCc4ccco4)o3)C(=O)N=C2S1 | 10.4
30 | C/C(=N\O)C(=O)NCc1ccccn1 | 77.5
31 | CC1(OC(=O)C2CCCC2)C(=O)C=C2C=C(c3ccsc3)OC=C2C1=O (configuration not stated) | 8.75
32 | Cc1ccc(CNC(=O)COc2ccc3c(c2)CCC3)cc1 | 44.6
33 | CCN(CC(=O)Nc1c(F)cccc1F)C(=O)c1cccc(-n2cccc2)c1 | 20.9
34 | CCOC(=O)Cn1nnnc1C(C(C)C)N(Cc1cc2c(C)cc(C)cc2[nH]c1=O)C1CCCC1 (configuration not stated) | 46
35 | CN(C)c1ccc(N/C=C/C(=O)c2ccco2)cc1 | 30.8
36 | COc1ccccc1NC(=O)c1oc2ccc(C)cc2c1C | 98
37 | COc1ccc(NC(=O)CN(C)C(=O)c2cc(-c3ccco3)nc3ccccc23)cc1 | 4.87
38 | COC(=O)c1ccccc1-c1c2ccc(=N)cc-2oc2cc(N)ccc12 | 13.6
39 | Oc1cccc(C=NCc2ccccc2)c1O | 1.9
40 | O=c1cc(-c2ccc(O)cc2)oc2cc(O)c(C3OC(CO)C(O)C(O)C3O)c(O)c12 (configuration not stated) | 7.05
41 | NC(=O)Cn1c(=O)n(Cc2ccco2)c(=O)c2c3c(sc21)CCCCC3 | 3.8
42 | Oc1ccc(/C=N/NC2=NCCCCC2)c(O)c1 | 4.9
43 | COc1cccc(NS(=O)(=O)c2ccc3c(c2)C2C=CCC2C(c2ccc(C(=O)O)cc2)N3)c1 (configuration not stated) | 3.32
44 | Nc1nc(Sc2ccc([N+](=O)[O-])c3nonc23)c2[nH]cnc2n1 | 10.9

Row | Compound | IC50 [µM]
45 | O=c1[nH]c(=S)[nH]c2c1C(c1ccc(Br)cc1)c1c([nH]c(=S)[nH]c1=O)O2 | 41.1
46 | O=[N+]([O-])c1cc2ccccc2c(O)c1O | 22.2
47 | O=C(NCc1ccc2c(c1)OCO2)c1cc2ncc(Br)cn2n1 | 33.7
48 | Cc1nc2cc(NC(=O)Nc3ccc(N4CCOCC4)cc3)ccc2n1C | 99.2
49 | CCOC(=O)C1=C(O)/C(=C/c2ccc(CNC(=O)C(=O)Nc3ccc(C)cc3)o2)N=C1C | 33.3
50 | CCCNC1=C(C)C(=O)C2=C(C1=O)C(COC(N)=O)[C@]1(OC)C3NC3CN21 (some centres not stated) | 8.12
51 | CN(C)c1ccc(NC(=O)Cn2cc3c(n2)CCCC3)cc1 | 6.08
52 | CCOC(=O)C1=C(N)n2c(s/c(=C/c3ccco3)c2=O)=C(C(=O)OC)C1c1ccco1 (configuration not stated) | 2.17
53 | CCOc1ccc2[nH]c(=O)c(CN(Cc3nnnn3Cc3ccco3)C3CCCCC3)cc2c1 | 4.82
54 | Cc1cccc(NC(=S)NC(=O)/C=C/c2ccco2)c1 | 17.5
55 | CCOC(=O)C1=C(C)N=C2SC(C(=O)OC)=CC(=O)N2C1c1cc(OC)c(OC)c(OC)c1 (configuration not stated) | 11
56 | COc1cc(C(=O)NNC(=S)NCc2ccco2)cc(OC)c1OC | 63.5
57 | CC1(CCl)N([O-])C2=C(CCCC2)[N+]1=O (configuration not stated) | 8.49
58 | CCOc1ccc(-c2nnn(CC(=O)c3ccc4c(c3)OCCO4)n2)cc1OCC | 29.1
59 | COC/C=C/C1=CC2=CC(=O)C(C)(OC(=O)c3ccco3)C(=O)C2=CO1 (configuration not stated) | 1.52
60 | COc1ccc(Oc2nc(C)cc(C)c2C#N)cc1 | 59.3
61 | Oc1ccccc1/C=N/c1c(-c2ccco2)nc2ccccn12 | 0.48
62 | CCOc1cccc(=O)c2c(C)n(C)c(C)c12 | 11.6
63 | CC(=O)Nc1cccc(Oc2ncnc3scc(-c4ccccc4)c23)c1 | 16.8
64 | CC(=C/C(=O)O)/C=C/c1ccc(Cl)o1 | 27.4
65 | O=C(COC(=O)c1ccc(NS(=O)(=O)c2cccs2)cc1)NCc1ccco1 | 5.88
66 | CC1OC(OCC2OC(Oc3c(-c4ccc(O)cc4)oc4cc(O)cc(O)c4c3=O)C(O)C(O)C2O)C(O)C(O)C1O (configuration not stated) | 11.8

Row | Compound | IC50 [µM]
67 | COc1cccc(CNC(=O)Cn2c(=O)oc3ccccc32)c1OC | 85.7
68 | Oc1cc2c(cc1O)C1c3ccc(O)c(O)c3OCC1(O)C2 (configuration not stated) | 0.46
69 | O=C(Nc1ccccc1N1CCCC1)c1ccc(Br)o1 | 46.2
70 | O=C(N/N=C/c1ccc(O)c(O)c1O)/C(=C/c1ccc([N+](=O)[O-])cc1)NC(=O)c1ccccc1 | 0.87
71 | CC1(C)Cc2nc3sc(C(=O)O)c(N)c3cc2CS1 | 18.4
72 | O=[N+]([O-])c1ccc(Cl)c(S(=O)(=O)Nc2cccc(S(=O)(=O)NC3=NCCC3)c2)c1 | 5.64
73 | COc1cccc(-c2nn(C)c3sc(C(=O)Nc4ccc5c(c4)OCCO5)cc23)c1 | 51.6
74 | COc1ccc(N2CCN(C(=O)c3ccc(C)c(Cl)c3)CC2)cc1 | 42.2
75 | Oc1ccc(/C=C/c2cc(O)cc(O)c2)cc1 | 25.3
76 | O=[N+]([O-])c1cc(Br)c(O)c(C=Nc2ccc(N3CCOCC3)cc2)c1 | 7.19
77 | Cc1nc(C)c(C(=O)Nc2nc3c(C)cccc3s2)o1 | 32
78 | O=[n+]1c2c(n([O-])c3cc(Cl)ccc31)CCCC2 | 9.81
79 | Oc1ccc(NCc2ccccc2OCc2ccccc2)cc1 | 3.97
80 | CCN1C(=O)/C(=C\c2ccco2)C(C(=O)OC)=C1C | 23
81 | CCCCC1=CC2=CC(=O)C(C)(OC(=O)c3cnc4ccccc4n3)C(=O)C2=CO1 (configuration not stated) | 12.4
82 | Cc1ccc(NC(=O)CCCCCC2NC(=O)NC2C)cc1 (configuration not stated) | 0.71
83 | O=C(NCCO)Nc1ccc2nc(-c3ccco3)c(-c3ccco3)nc2c1 | 0.24
84 | CN(CC(=O)Nc1c(Cl)cccc1Cl)C(=O)c1cccc(-n2cccc2)c1 | 31.3
85 | O=C(O)C1=NN(c2cc(Cl)c(S(=O)(=O)O)cc2Cl)C(=O)C1 | 85.7
86 | Cc1cccn2c(=O)c3cc(C(=O)NCc4ccco4)c(=N)n(CCc4ccccc4)c3nc12 | 34
87 | O=[N+]([O-])c1cc(-c2ccc(/C=N/c3nc4ccccn4c3-c3ccco3)o2)ccc1Cl | 10
88 | CCOC(=O)C1=C(C)NC(C)=C(C(=O)OCC)C1c1cn(-c2ccccc2)nc1-c1ccco1 | 31.1

Row | Compound | IC50 [µM]
89 | O=C(CSc1nnnn1-c1ccccc1)Nc1ncc2c(n1)CC(c1ccco1)CC2=O (configuration not stated) | 12.6
90 | O=C1[C@@H]2C(Cc3ccc(O)cc3)NC3(C(=O)Nc4ccc(F)cc43)[C@@H]2C(=O)N1c1ccc(F)cc1 (some centres not stated) | 64.5
91 | O=C(Nc1ccc(Br)cn1)c1coc(=O)c(Br)c1 | 13
92 | COc1ccc(NCc2nc3ccccc3n2CCOc2ccccc2)cc1 | 49
93 | O=C(O)c1cccc2cccc(-c3c4ccc(=O)c(O)c-4oc4c(O)c(O)ccc34)c12 | 0.53
94 | COc1ccc(NC(=O)N2c3ccc(OC)cc3C(C)=CC2(C)C)cc1 | 3.27
95 | O=C(O)Cn1cc(/C=C2\C(=O)NC(=O)N(Cc3ccco3)C2=O)c2ccccc21 | 14.7
96 | COC(=O)c1cnn2c(C(F)(F)F)cc(-c3ccco3)nc12 | 7.16
97 | NS(=O)(=O)c1ccc(N=Nc2c[nH]c(=O)c(O)c2)cc1 | 4.08
98 | Cc1ccc(C(=O)O)cc1-c1ccc(/C=C2/NC(=O)N(c3ccccc3)C2=O)o1 | 25.5
99 | Oc1ccc(/C=N/N2CCOCC2)c(O)c1O | 12.5
100 | CC(=O)N1CCN(c2ccc(NCc3ccc(C)s3)cc2)CC1 | 3.13
101 | Oc1ccc(N=Cc2ccc(O)c(O)c2)cc1 | 0.99
102 | COC(=O)C1=C(O)/C(=C\c2ccc(CNC(=O)C(=O)Nc3ccc(C)c(C)c3)o2)N=C1C | 34.1
103 | Cc1c(O)cc2c(c1O)C(=O)CC(c1ccc(O)cc1)O2 (configuration not stated) | 2.68
104 | CC(=O)NC1=NC(=O)/C(=C/c2cc(C)n(-c3cccc(C(=O)O)c3)c2C)S1 | 7.28
105 | O=C1NC(=S)N/C1=C/c1ccc(-c2c(Br)cc([N+](=O)[O-])cc2Br)o1 | 39
106 | Oc1c(CN2CCOCC2)cc(CN2CCOCC2)c(O)c1O | 9.18
107 | O=C(c1cc(COc2cccc3cccnc23)on1)N1CCC[C@H]1CO | 88.7
